{"source": "paper PMC10906223", "about": "(JCI Insight, 2024)", "key": {"[1]": {"biological_target": "T1, EphA4 receptor (Mus musculus, UniProt Q03137)", "T1 construct": "purchased R&D Systems 641-A4-200", "T1 sequence (Q03137 with tags, fused parts or gaps limits assumed)": "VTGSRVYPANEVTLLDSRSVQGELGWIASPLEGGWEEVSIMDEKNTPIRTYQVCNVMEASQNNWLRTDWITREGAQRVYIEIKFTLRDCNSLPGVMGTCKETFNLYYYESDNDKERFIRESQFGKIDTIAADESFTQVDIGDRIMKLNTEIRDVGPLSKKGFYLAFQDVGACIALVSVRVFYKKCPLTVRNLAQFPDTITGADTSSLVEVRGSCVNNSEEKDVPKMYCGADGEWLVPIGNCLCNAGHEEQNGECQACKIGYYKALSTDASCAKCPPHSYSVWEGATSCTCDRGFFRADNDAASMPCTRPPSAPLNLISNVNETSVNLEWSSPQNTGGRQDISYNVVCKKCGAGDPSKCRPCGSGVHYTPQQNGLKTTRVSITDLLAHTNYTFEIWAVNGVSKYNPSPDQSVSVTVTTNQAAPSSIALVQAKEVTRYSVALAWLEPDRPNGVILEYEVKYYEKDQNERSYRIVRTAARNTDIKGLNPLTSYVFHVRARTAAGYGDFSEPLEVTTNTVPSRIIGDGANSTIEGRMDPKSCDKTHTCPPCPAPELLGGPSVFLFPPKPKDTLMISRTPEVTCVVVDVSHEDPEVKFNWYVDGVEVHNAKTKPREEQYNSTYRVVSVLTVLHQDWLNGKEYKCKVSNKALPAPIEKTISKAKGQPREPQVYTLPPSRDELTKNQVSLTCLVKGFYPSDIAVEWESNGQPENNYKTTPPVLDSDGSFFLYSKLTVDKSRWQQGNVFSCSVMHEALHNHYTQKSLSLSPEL", "experiment": "ELISA: competition between WCDD301 and Ephrin-A5 Fc for binding to EphA4", "details": "for Bound Ephrin (WCDD301, 0.01 µM) / Bound Ephrin (WCDD301, 0.1 µM) / Bound Ephrin (WCDD301, 1 µM): Figure 1E; for Bound Ephrin-A5 (ELISA signal) / AUC of competition curve: Figure 1D; for AUC of competition curve: EphA4 3 μg/mL, mean ± SD", "experimental": "Wells of the protein A–coated microplate (Pierce, catalog 15132) were washed using 200 μL of binding buffer (PBS supplemented by 0.01% Tween 20). Recombinant mouse EphA4 Fc chimera protein (R&D Systems, catalog 641-A4-200) was reconstituted in 1× PBS (Genesee, catalog 25-507XB, pH 7.2 ± 0.1), diluted to 3 μg/mL using binding buffer, dispensed (100 μL) in each well, and rocked on a belly dancer shaker (3 hours at room temperature, RT). Following 3 washes in the binding buffer, blocking was done using blocking buffer (5% BSA in binding buffer) for 3 hours at RT. Then, after 5 washes, the reconstituted recombinant mouse Ephrin-A5 Fc (R&D Systems, catalog 7396-EA-050) was added (100 μL) into each well and rocked for 2.5 hours on the shaker (Ephrin-A5 Fc concentrations were used as described in the Results section). After 7 washes using binding buffer, alkaline phosphatase–conjugated antibody against Ephrin-A5 was diluted (1:1,000) in the binding buffer plus 2% BSA, added to each well, and incubated at 4°C, overnight. Conjugation of the anti-EFNA5 antibody (Abnova, catalog H00001946-M02; 0.5 mg/mL; target sequence 114–203) was done using Abcam conjugation kit (catalog ab102850) based on the manufacturer’s instruction. After washing 7 times, p-nitrophenyl phosphate tablet (MilliporeSigma, catalog N1891) was reconstituted in 5 mL of PBS and added to each well (100 μL). Following 1 hour shaking at RT in the dark, reaction was stopped by adding 100 μL of 3N NaOH. OD was read at 405 nm within 5 minutes using the microplate reader (Agilent BioTek Cytation 5).\nWe took following the approaches to assay competition between Ephrin-A5 and WCDD301 for binding to the EphA4 receptor. Wells of the microplate were coated by a fixed level of EphA4 Fc (3.5 pmol/well), and competition experiments with Ephrin-A5 and WCDD301 were performed as listed in Supplemental Tables 3 and 4. We determined the KD value for each condition by means of Michaelis-Menten best fit analysis in GraphPad Prism software version 4. To control for potential interaction between WCDD301 and Ephrin-A5 Fc, we coated wells of a microplate using Ephrin-A5 Fc and then incubated them with or without WCDD301 (0.2 μM)."}, "[2]": {"tested_on": "primary mouse hepatocytes", "experiment": "Glucose output from primary mouse hepatocytes", "type": "cell-based", "experimental": "Primary hepatocyte culture was performed following previous publications ([63], [64]). Briefly, livers were extracted from C57BL/6J (n = 5), rinsed in HBSS, and minced. The minced tissue was treated with collagenase P solution (9 μg/mL) neutralized by DMEM containing 10% FBS. Following settling of undigested tissue, the supernatant was collected and centrifuged at 490g for 1 minute. The pellet was treated with red blood cell lysis buffer (8.26 g NH4Cl, 1 g NaHCO3, 0.037 g Na2EDTA in 1,000 mL of distilled water) for 3 minutes, diluted with HBSS containing 6% FBS, and centrifuged at 490g for 1 minute. The resulting pellet was washed 2 times using HBSS containing 6% FBS (290g, 1 minute, and 190g, 1 minute) and resuspended in HBSS containing 2% FBS. The procedure was repeated 2 additional times on the undigested tissue. The collected suspension was sequentially filtered through a 500 μm Steel Basket-Strainer (pluriSelect) and Falcon 100 µm Cell Strainer (Corning). After centrifugation (190g, 1 minute), the pellet was resuspended in DMEM (containing 10% FBS, 100 U/mL penicillin, and 100 μg/mL streptomycin), seeded in a 48-well cell culture plate (7.5 × 10^5 cells/ well), and incubated in a cell culture incubator, overnight. Cell viability and attachment were determined by trypan blue staining."}}, "note": "“And” between values parts separate entries of the source, which are not always exact repeats. Equal values may be shown once."}
{"molecule": "CC(=O)OCC(N)(COC(C)=O)COC(C)=O", "note": "[WCDD301, 2-(acetoxymethyl)-2-aminopropane-1,3-diyl diacetate]", "values": [{"measurement": "Competition with Ephrin-A5 for EphA4", "setting": "[1]; AUC analysis", "result": "competes with the natural ligand, Ephrin-A5"}, {"measurement": "Bound Ephrin (WCDD301, 0.01 µM)", "setting": "[1]; Ephrin-A5 Fc 2 nM", "result": "0.051 and 0.05 and 0.052"}, {"measurement": "Bound Ephrin (WCDD301, 0.1 µM)", "setting": "[1]; Ephrin-A5 Fc 2 nM", "result": "0.05 and 0.06"}, {"measurement": "Bound Ephrin (WCDD301, 1 µM)", "setting": "[1]; Ephrin-A5 Fc 2 nM", "result": "0.03 and 0.04"}, {"measurement": "Bound Ephrin (WCDD301, 0.01 µM)", "setting": "[1]; Ephrin-A5 Fc 4 nM", "result": "0.061 and 0.07 and 0.064"}, {"measurement": "Bound Ephrin (WCDD301, 0.1 µM)", "setting": "[1]; Ephrin-A5 Fc 4 nM", "result": "0.062 and 0.064 and 0.07"}, {"measurement": "Bound Ephrin (WCDD301, 1 µM)", "setting": "[1]; Ephrin-A5 Fc 4 nM", "result": "0.04 and 0.05"}, {"measurement": "Bound Ephrin (WCDD301, 0.01 µM)", "setting": "[1]; Ephrin-A5 Fc 8 nM", "result": "0.142 and 0.122 and 0.156"}, {"measurement": "Bound Ephrin (WCDD301, 0.1 µM)", "setting": "[1]; Ephrin-A5 Fc 8 nM", "result": "0.119 and 0.121 and 0.098"}, {"measurement": "Bound Ephrin (WCDD301, 1 µM)", "setting": "[1]; Ephrin-A5 Fc 8 nM", "result": "0.1 and 0.104 and 0.11"}, {"measurement": "Bound Ephrin (WCDD301, 0.01 µM)", "setting": "[1]; Ephrin-A5 Fc 16 nM", "result": "0.18 and 0.189 and 0.209"}, {"measurement": "Bound Ephrin (WCDD301, 0.1 µM)", "setting": "[1]; Ephrin-A5 Fc 16 nM", "result": "0.141 and 0.137 and 0.119"}, {"measurement": "Bound Ephrin (WCDD301, 1 µM)", "setting": "[1]; Ephrin-A5 Fc 16 nM", "result": "0.145 and 0.115 and 0.125"}, {"measurement": "Bound Ephrin (WCDD301, 0.01 µM)", "setting": "[1]; Ephrin-A5 Fc 32 nM", "result": "0.265 and 0.289 and 0.221"}, {"measurement": "Bound Ephrin (WCDD301, 0.1 µM)", "setting": "[1]; Ephrin-A5 Fc 32 nM", "result": "0.21 and 0.269 and 0.243"}, {"measurement": "Bound Ephrin (WCDD301, 1 µM)", "setting": "[1]; Ephrin-A5 Fc 32 nM", "result": "0.234 and 0.189 and 0.171"}, {"measurement": "Bound Ephrin (WCDD301, 0.01 µM)", "setting": "[1]; Ephrin-A5 Fc 64 nM", "result": "0.321 and 0.34 and 0.365"}, {"measurement": "Bound Ephrin (WCDD301, 0.1 µM)", "setting": "[1]; Ephrin-A5 Fc 64 nM", "result": "0.301 and 0.29 and 0.27"}, {"measurement": "Bound Ephrin (WCDD301, 1 µM)", "setting": "[1]; Ephrin-A5 Fc 64 nM", "result": "0.28 and 0.27 and 0.26"}, {"measurement": "Bound Ephrin-A5 (ELISA signal)", "setting": "[1]; WCDD301 0.0625 µM, Ephrin-A5 (2 nM)", "result": "0.1 and 0.12"}, {"measurement": "Bound Ephrin-A5 (ELISA signal)", "setting": "[1]; WCDD301 0.0625 µM, Ephrin-A5 (4 nM), c4-c6", "result": "0.217 and 0.196 and 0.19"}, {"measurement": "Bound Ephrin-A5 (ELISA signal)", "setting": "[1]; WCDD301 0.0625 µM, Ephrin-A5 (4 nM), third group c7-c9", "result": "0.23 and 0.236 and 0.246"}, {"measurement": "Bound Ephrin-A5 (ELISA signal)", "setting": "[1]; WCDD301 0.0625 µM, Ephrin-A5 (8 nM)", "result": "0.237 and 0.247 and 0.265"}, {"measurement": "Bound Ephrin-A5 (ELISA signal)", "setting": "[1]; WCDD301 0.125 µM, Ephrin-A5 (2 nM)", "result": "0.086 and 0.108 and 0.1"}, {"measurement": "Bound Ephrin-A5 (ELISA signal)", "setting": "[1]; WCDD301 0.125 µM, Ephrin-A5 (4 nM), c4-c6", "result": "0.202 and 0.18 and 0.187"}, {"measurement": "Bound Ephrin-A5 (ELISA signal)", "setting": "[1]; WCDD301 0.125 µM, Ephrin-A5 (4 nM), third group c7-c9", "result": "0.208 and 0.216"}, {"measurement": "Bound Ephrin-A5 (ELISA signal)", "setting": "[1]; WCDD301 0.125 µM, Ephrin-A5 (8 nM)", "result": "0.236 and 0.233 and 0.234"}, {"measurement": "Bound Ephrin-A5 (ELISA signal)", "setting": "[1]; WCDD301 0.25 µM, Ephrin-A5 (2 nM)", "result": "0.072 and 0.073 and 0.082"}, {"measurement": "Bound Ephrin-A5 (ELISA signal)", "setting": "[1]; WCDD301 0.25 µM, Ephrin-A5 (4 nM), c4-c6", "result": "0.148 and 0.141 and 0.169"}, {"measurement": "Bound Ephrin-A5 (ELISA signal)", "setting": "[1]; WCDD301 0.25 µM, Ephrin-A5 (4 nM), third group c7-c9", "result": "0.201 and 0.205 and 0.203"}, {"measurement": "Bound Ephrin-A5 (ELISA signal)", "setting": "[1]; WCDD301 0.25 µM, Ephrin-A5 (8 nM)", "result": "0.222 and 0.22 and 0.212"}, {"measurement": "AUC of competition curve", "setting": "[1]; at 2 nM", "result": "0.025 ± 0.0011", "unit": "AU"}, {"measurement": "AUC of competition curve", "setting": "[1]; at 4 nM", "result": "0.0469 ± 0.0014", "unit": "AU"}, {"measurement": "AUC of competition curve", "setting": "[1]; at 6 nM", "result": "0.0554 ± 0.0006", "unit": "AU"}, {"measurement": "AUC of competition curve", "setting": "[1]; at 8 nM", "result": "0.0617 ± 0.0011", "unit": "AU"}, {"measurement": "Glucagon-stimulated glucose output", "setting": "[2]; 100 nM glucagon, 3 μM WCDD301", "result": "did not alter glucagon-stimulated glucose output"}, {"measurement": "Glucose output from hepatocytes (Figure 6G)", "setting": "[2]; WCDD301 +, Glucagon +", "result": "15.2 and 14.9 and 17.2 and 21"}]}
